Consider 24 molecules from patent US9260408B2, “Dihydroquinoline-2-one derivatives” (Hoffmann-La Roche Inc., priority 2011, dated 2016).

Each structure is given as a SMILES string.

The target in one assay is T1, human CYP11B1 (Homo sapiens, UniProt P15538).
T1 construct: expressed in transfected cells
T1 sequence (P15538 25-503): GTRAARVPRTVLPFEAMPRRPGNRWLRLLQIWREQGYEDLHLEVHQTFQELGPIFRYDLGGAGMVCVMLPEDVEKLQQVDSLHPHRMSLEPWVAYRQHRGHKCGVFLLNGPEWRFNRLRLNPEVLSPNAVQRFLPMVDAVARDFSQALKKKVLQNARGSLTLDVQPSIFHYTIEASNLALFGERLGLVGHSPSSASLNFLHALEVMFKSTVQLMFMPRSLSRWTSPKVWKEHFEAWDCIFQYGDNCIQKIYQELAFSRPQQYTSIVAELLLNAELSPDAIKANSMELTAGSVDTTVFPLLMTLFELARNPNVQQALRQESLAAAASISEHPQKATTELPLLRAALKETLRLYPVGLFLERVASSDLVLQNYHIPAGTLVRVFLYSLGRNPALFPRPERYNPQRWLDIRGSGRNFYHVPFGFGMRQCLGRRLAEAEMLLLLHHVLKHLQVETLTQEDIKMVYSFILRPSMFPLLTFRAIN
Briefly: G-402 cellular enzyme assay, human CYP11B1 (cortisol release, HTRF). It is filed as cell-based. Particulars: G-402 cells expressing human CYP11B1; 1 μM Deoxycortisol. The procedure, abridged:
(§1)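 G-402 cells stably expressing human CYP11B2 or CYP11B1, in DMEM/F12 with 2.5% charcoal-treated FCS, were incubated 16 h with compound plus 1 μM deoxycorticosterone (CYP11B2) or 1 μM deoxycortisol (CYP11B1). Aldosterone or cortisol in the supernatant measured by HTRF; EC50 from a 4-parameter MMF fit.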
For orientation: In TR-FRET formats the signal depends on donor and acceptor labels being close together.

A further assay deals with T2, human CYP11B2 (Homo sapiens, UniProt P19099).
T2 construct: expressed in transfected cells
T2 sequence (P19099 25-503): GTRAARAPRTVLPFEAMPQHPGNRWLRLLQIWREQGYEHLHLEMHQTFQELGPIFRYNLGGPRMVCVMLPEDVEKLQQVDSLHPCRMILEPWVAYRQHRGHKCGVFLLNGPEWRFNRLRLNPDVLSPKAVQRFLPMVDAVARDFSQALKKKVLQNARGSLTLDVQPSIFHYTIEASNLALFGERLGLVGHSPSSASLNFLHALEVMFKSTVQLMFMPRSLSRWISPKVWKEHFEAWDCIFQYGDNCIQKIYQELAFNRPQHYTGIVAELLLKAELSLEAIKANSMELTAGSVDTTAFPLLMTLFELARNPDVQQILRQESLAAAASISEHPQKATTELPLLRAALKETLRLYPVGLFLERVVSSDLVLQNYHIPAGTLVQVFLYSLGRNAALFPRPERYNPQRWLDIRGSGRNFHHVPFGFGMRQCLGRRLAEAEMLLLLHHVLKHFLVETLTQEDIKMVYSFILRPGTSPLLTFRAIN
Briefly: G-402 cellular enzyme assay, human CYP11B2 (aldosterone release, HTRF). It is filed as cell-based. The note with it: G-402 cells expressing human CYP11B2; 1 μM Deoxycorticosterone. The procedure, abridged:
as §1

Consider `CN1C(=O)CCc2cc(-c3cncc(C4(NC(=O)c5ncccc5Cl)CC4)c3)ccc21` [Example 137, 3-Chloro-pyridine-2-carboxylic acid {1-[5-(1-methyl-2-oxo-1,2,3,4-tetrahydro-quinolin-6-yl)-pyridin-3-yl]-cyclopropyl}-amide], for which the EC50 at human CYP11B1 was found to be 0.872 µM; on human CYP11B2, 0.006 µM.
In the same order, the values of `CN1C(=O)CCc2cc(-c3cncc(C(C)(C)NC(=O)c4ncccc4Cl)c3)ccc21` [Example 138] are 0.267 µM and 0.003 µM.
Turning to `Cc1noc(C)c1C(=O)NC(C)(C)c1cncc(-c2ccc3c(c2)CCC(=O)N3C)c1` [Example 139], the half-maximal effective concentration (EC50) at human CYP11B1 stood at 0.455 µM; at human CYP11B2, 0.018 µM.
In the same order, the values of `O=C1CCc2cc(-c3cncc(CNC(=O)c4ncccc4Cl)c3)ccc2N1` [Example 140, 3-Chloro-pyridine-2-carboxylic acid [5-(2-oxo-1,2,3,4-tetrahydro-quinolin-6-yl)-pyridin-3-ylmethyl]-amide] are 6.65 µM and 0.114 µM.
In the same order, the values of `Cc1noc(C)c1C(=O)NCc1cncc(-c2ccc3c(c2)CCC(=O)N3)c1` [Example 141, 3,5-Dimethyl-isoxazole-4-carboxylic acid [5-(2-oxo-1,2,3,4-tetrahydro-quinolin-6-yl)-pyridin-3-ylmethyl]-amide] are 19.9 µM and 0.856 µM.
For `CN1C(=O)CCc2cc(-c3cncc(C4(NC(=O)c5ncccc5Cl)CC4)c3)c(F)cc21` [Example 142] the same measures were 0.38 µM and 0.003 µM.
Regarding `Cc1cccnc1C(=O)NC1(c2cncc(-c3ccc4c(c3)CCC(=O)N4C)c2)CC1` [Example 143], the concentration for a half-maximal effect (EC50) came to 0.051 µM on human CYP11B1 and 0.009 µM at human CYP11B2.
For `CCC(=O)N[C@H]1CC[C@H](Oc2cncc(-c3ccc4c(c3)CCC(=O)N4C)c2)CC1` [Example 144] the same measures were 0.46 µM and 0.004 µM.
For `CN1C(=O)CCc2cc(-c3cncc(CNC(=O)c4cnoc4C(F)(F)F)c3)ccc21` [Example 145] the same measures were 3.78 µM and 0.175 µM.
On to `CCS(=O)(=O)NCCOc1cncc(-c2ccc3c(c2)CCC(=O)N3C)c1` [Example 151, ethanesulfonic acid {2-[5-(1-methyl-2-oxo-1,2,3,4-tetrahydro-quinolin-6-yl)-pyridin-3-yloxy]-ethyl}-amide], for which the results for the half-maximal effective concentration (EC50) at human CYP11B1 and on human CYP11B2 were 0.09 µM and 0.005 µM, respectively.
For `CN1C(=O)CCc2cc(-c3cncc(CNS(=O)(=O)c4cccc(Cl)c4)c3)ccc21` [Example 152, 3-Chloro-N-[5-(1-methyl-2-oxo-1,2,3,4-tetrahydro-quinolin-6-yl)-pyridin-3-ylmethyl]-benzenesulfonamide], the concentration for a half-maximal effect (EC50) came out at 4.75 µM on human CYP11B1 and 0.154 µM on human CYP11B2.
For `COc1ccc(S(=O)(=O)NCc2cncc(-c3ccc4c(c3)CCC(=O)N4C)c2)cn1` [Example 153, 6-Methoxy-pyridine-3-sulfonic acid [5-(1-methyl-2-oxo-1,2,3,4-tetrahydro-quinolin-6-yl)-pyridin-3-ylmethyl]-amide] the same measures were 11.1 µM and 0.375 µM.
For `Cc1noc(C)c1S(=O)(=O)NCc1cncc(-c2ccc3c(c2)CCC(=O)N3C)c1` [Example 154, 3,5-Dimethyl-isoxazole-4-sulfonic acid [5-(1-methyl-2-oxo-1,2,3,4-tetrahydro-quinolin-6-yl)-pyridin-3-ylmethyl]-amide] the same measures were 1.43 µM and 0.114 µM.
For `CN1C(=O)CCc2cc(-c3cncc(CNS(=O)(=O)C4CC4)c3)ccc21` [Example 155, Cyclopropanesulfonic acid [5-(1-methyl-2-oxo-1,2,3,4-tetrahydro-quinolin-6-yl)-pyridin-3-ylmethyl]-amide] the same measures were 0.589 µM and 0.047 µM.
With `CN1C(=O)CCc2cc(-c3cncc(CNS(=O)(=O)c4ccc(Cl)c(Cl)c4)c3)ccc21` [Example 156, 3,4-Dichloro-N-[5-(1-methyl-2-oxo-1,2,3,4-tetrahydro-quinolin-6-yl)-pyridin-3-ylmethyl]-benzenesulfonamide], the EC50 on human CYP11B1 was 1.37 µM; at human CYP11B2 it was 0.155 µM.
In the same order, the values of `CN1C(=O)CCc2cc(-c3cncc(CNS(=O)(=O)c4cn(C)cn4)c3)ccc21` [Example 157, 1-Methyl-1H-imidazole-4-sulfonic acid [5-(1-methyl-2-oxo-1,2,3,4-tetrahydro-quinolin-6-yl)-pyridin-3-ylmethyl]-amide] are 3.26 µM and 0.463 µM.
In the same order, the values of `CN1C(=O)CCc2cc(-c3cncc(CNS(=O)(=O)c4ccc(Cl)nc4)c3)ccc21` [Example 158, 6-Chloro-pyridine-3-sulfonic acid [5-(1-methyl-2-oxo-1,2,3,4-tetrahydro-quinolin-6-yl)-pyridin-3-ylmethyl]-amide] are 6.43 µM and 0.239 µM.
For `CN1C(=O)CCc2cc(-c3cncc(CNS(=O)(=O)c4cnn(C)c4)c3)ccc21` [Example 159, 1-Methyl-1H-pyrazole-4-sulfonic acid [5-(1-methyl-2-oxo-1,2,3,4-tetrahydro-quinolin-6-yl)-pyridin-3-ylmethyl]-amide] the same measures were 7.93 µM and 0.18 µM.
`CCS(=O)(=O)N1CCC[C@H](Oc2cncc(-c3ccc4c(c3)CCC(=O)N4C)c2)C1` [Example 160, 6-[5-((S)-1-Ethanesulfonyl-piperidin-3-yloxy)-pyridin-3-yl]-1-methyl-3,4-dihydro-1H-quinolin-2-one]: the values for the EC50 on human CYP11B1 and at human CYP11B2 were 0.716 µM and 0.113 µM, respectively.
For `CCS(=O)(=O)N1CCC(Oc2cncc(-c3ccc4c(c3)CCC(=O)N4C)c2)CC1` [Example 161, 6-[5-(1-Ethanesulfonyl-piperidin-4-yloxy)-pyridin-3-yl]-1-methyl-3,4-dihydro-1H-quinolin-2-one] the same measures were 0.008 µM and 0.001 µM.
For `CN1C(=O)CCc2cc(-c3cncc(CNS(=O)(=O)CC(F)(F)F)c3)ccc21` [Example 162, 2,2,2-Trifluoro-ethanesulfonic acid [5-(1-methyl-2-oxo-1,2,3,4-tetrahydro-quinolin-6-yl)-pyridin-3-ylmethyl]-amide] the same measures were 2.85 µM and 0.062 µM.
For `CN1C(=O)CCc2cc(-c3cncc(CNS(=O)(=O)C(F)(F)F)c3)ccc21` [Example 163, C,C,C-Trifluoro-N-[5-(1-methyl-2-oxo-1,2,3,4-tetrahydro-quinolin-6-yl)-pyridin-3-ylmethyl]-methanesulfonamide] the same measures were 2.39 µM and 0.061 µM.
`CCS(=O)(=O)N1CC[C@H](Oc2cncc(-c3ccc4c(c3)CCC(=O)N4C)c2)C1` [Example 164, 6-[5-((S)-1-Ethanesulfonyl-pyrrolidin-3-yloxy)-pyridin-3-yl]-1-methyl-3,4-dihydro-1H-quinolin-2-one]: the concentration for a half-maximal effect (EC50) on human CYP11B1 was 0.207 µM; on human CYP11B2, 0.009 µM.
In the same order, the values of `CCS(=O)(=O)N1CC[C@H]1COc1cncc(-c2ccc3c(c2)CCC(=O)N3C)c1` [Example 165, 6-[5-((S)-1-Ethanesulfonyl-azetidin-2-ylmethoxy)-pyridin-3-yl]-1-methyl-3,4-dihydro-1H-quinolin-2-one] are 0.494 µM and 0.013 µM.

For orientation: EC50 means the midpoint of the concentration-response curve. Higher therefore signals a less potent agent.
